Patent US7960433B2, “Treatment of chemokine mediated diseases” (Schering Corporation, priority 2002, dated 2011)

Tests used:
PGE2 [1] = experiment: Carrageenan-induced rat paw edema model: PGE2 production in the hindpaw (ELISA); assay type: in vivo, male Sprague-Dawley rats; settings: oral; Compound A 1 mg/kg, betamethasone 0.05 mg/kg, alone or combined
Method: (§1) Carrageenan (0.05 ml of an 1% solution in saline) was injected into one hindpaw of male Sprague-Dawley rats. […] The increase in paw volume that occurred between the two timepoints was determined for each group. Rats received Compound A: [drawing 179] (see Example 405 of WO 02/083624) or standard drugs in methylcellulose vehicle by the oral route, 1 hr before carrageenan injection. The percentage by which the edematous response was inhibited was calculated by comparing the increase in paw edema of drug-treated rats to that of vehicle-treated controls. To determine neutrophil accumulation in the paws, rats were sacrificed at 3 hrs and myeloperoxidase (MPO) activity was measured from inflammatory fluid expressed from the hindpaw using a colorimetric assay (Bradley et al., 1982). PGE2 production in the hindpaw was assessed by ELISA (R&D Systems, Minneapolis, Minn.).

[2] = tested on: carrageenan-induced paw edema; experiment: Carrageenan-induced rat paw edema model: paw volume; assay type: in vivo, male Sprague-Dawley rats; settings: oral, 1 hr before carrageenan, paw volume at 3 h; suboptimal doses: Compound A 1 mg/kg, indomethacin 0.5 mg/kg, betamethasone 0.05 mg/kg, alone or combined
Method: as §1

PGE2 [3] = experiment: SCW mouse knee model: PGE2 levels in patellar organ culture; assay type: in vivo, female C57BL/6J mice
Method: The method described by Lubberts et al, 1998 was used for these studies, with some modifications. Female 8-12 week old C57BL/6J animals were fasted overnight and dosed orally with Compound A, indomethacin, or a combination of these agents suspended in methylcellulose one hour prior to a single intra-articular injection of 6 μl containing 25 μg of bacterial SCW (4.32 mg/ml rhammose; Lee Laboratories, Grayson, Ga.) in saline into the right knee joint. The left knee joint received an injection of 6 μl of saline at the same time. In other experiments, a neutralizing rat anti-mouse TNFα antibody or matched rat IgG isotype control was administered intraperitoneally two hours prior to SCW injection and Compound A or methylcellulose vehicle was orally administered one hour prior to SCW injection. Knee swelling measurements were performed 2 hours after SCW injection using a dial-gauge caliper ([…], Athol, Mass.) by measuring the difference in swelling between the right and left knee joints. Patellar organ cultures for assessment of synovial cytokine and chemokine and prostaglandin levels were prepared at 2 hours after SCW injection and established as described (Lubberts et al, 1998), using ELISA kits obtained from R&D Systems (Minneapolis, Minn.). […]

IL-1β = experiment: SCW mouse knee model: IL-1β production by ex vivo patellar organ culture; assay type: in vivo, female C57BL/6J mice
Method: (§2) The method described by Lubberts et al, 1998 was used for these studies, with some modifications. Female 8-12 week old C57BL/6J animals were fasted overnight and dosed orally with Compound A, indomethacin, or a combination of these agents suspended in methylcellulose one hour prior to a single intra-articular injection of 6 μl containing 25 μg of bacterial SCW (4.32 mg/ml rhammose; Lee Laboratories, Grayson, Ga.) in saline into the right knee joint. The left knee joint received an injection of 6 μl of saline at the same time. In other experiments, a neutralizing rat anti-mouse TNFα antibody or matched rat IgG isotype control was administered intraperitoneally two hours prior to SCW injection and Compound A or methylcellulose vehicle was orally administered one hour prior to SCW injection. Knee swelling measurements were performed 2 hours after SCW injection using a dial-gauge caliper ([…], Athol, Mass.) by measuring the difference in swelling between the right and left knee joints. Patellar organ cultures for assessment of synovial cytokine and chemokine and prostaglandin levels were prepared at 2 hours after SCW injection and established as described (Lubberts et al, 1998), using ELISA kits obtained from R&D Systems (Minneapolis, Minn.). Statistical analysis was performed using the Student's t-test, with p<0.05 considered to be indicative of statistical significant differences between groups.

[4] = tested on: SCW-induced knee swelling; experiment: Streptococcal cell wall-induced mouse knee swelling model: knee swelling; assay type: in vivo, female C57BL/6J mice; settings: 2 hours after SCW injection
Method: as §2

[5] = tested on: myeloperoxidase (MPO) activity; experiment: Carrageenan-induced rat paw edema model: MPO activity in hindpaw inflammatory fluid (neutrophil accumulation); assay type: in vivo, male Sprague-Dawley rats; settings: oral, 3 hrs after carrageenan; Compound A 1 mg/kg, indomethacin 0.5 mg/kg, alone or combined
Method: Carrageenan (0.05 ml of an 1% solution in saline) was injected into one hindpaw of male Sprague-Dawley rats. Paw volumes (ml) were measured by a water displacement plethysmometer prior to and 3 h after the injection of carrageenan. The increase in paw volume that occurred between the two timepoints was determined for each group. Rats received Compound A:
[drawing 179] (see Example 405 of WO 02/083624) or standard drugs in methylcellulose vehicle by the oral route, 1 hr before carrageenan injection. The percentage by which the edematous response was inhibited was calculated by comparing the increase in paw edema of drug-treated rats to that of vehicle-treated controls. To determine neutrophil accumulation in the paws, rats were sacrificed at 3 hrs and myeloperoxidase (MPO) activity was measured from inflammatory fluid expressed from the hindpaw using a colorimetric assay (Bradley et al., 1982). PGE2 production in the hindpaw was assessed by ELISA (R&D Systems, Minneapolis, Minn.).

[6] = indomethacin alone (2 mg/kg oral)

SMILES: CC[C@@H](Nc1c(Nc2cccc(C(=O)N(C)C)c2O)c(=O)c1=O)c1ccc(C)o1 [Compound A]
- inhibition of paw PGE2 levels (PGE2 [1]): 31%
- inhibition of paw edema [2]: 20%
- inhibition of PGE2 levels in patellar organ culture (PGE2 [3]; Compound A alone at 10-25 mg/kg oral): 34-40%
- inhibition of IL-1β production by ex vivo patellar organ culture (IL-1β; Compound A 10 mg/kg oral, alone or with indomethacin): 49%
- inhibition of IL-1β production by ex vivo patellar organ culture (IL-1β; Compound A 25 mg/kg oral, alone or with indomethacin): 64%
- inhibition of knee swelling ([4]; Compound A 10 mg/kg oral, alone or with indomethacin 2 mg/kg): 46%
- inhibition of knee swelling ([4]; Compound A 25 mg/kg oral, alone or with indomethacin 2 mg/kg): 70%
- inhibition of MPO activity in the hindpaw [5]: 67%

SMILES: C[C@H]1C[C@H]2[C@@H]3CCC4=CC(=O)C=C[C@]4(C)[C@@]3(F)[C@@H](O)C[C@]2(C)[C@@]1(O)C(=O)CO [betamethasone, reference compound]
- inhibition of paw PGE2 levels (PGE2 [1]): 31%
- inhibition of paw edema [2]: 32%

SMILES: COc1ccc2c(c1)c(CC(=O)O)c(C)n2C(=O)c1ccc(Cl)cc1 [indomethacin, reference compound]
- inhibition of paw edema [2]: 0%
- inhibition of PGE2 levels in patellar organ culture (PGE2 [3]; [6]): 89%
- inhibition of IL-1β production by ex vivo patellar organ culture (IL-1β; [6]): 11%
- inhibition of knee swelling ([4]; indomethacin 2 mg/kg oral alone): 42%
- inhibition of MPO activity in the hindpaw [5]: −58%
